Test results taken from PubChem BioAssay AID248 (DTP/NCI, 2004).
Several values for one entry are separate records, joined by “and”; a condition that tells them apart may be missing. Identical values can stand only once. Inconclusive results and toxic doses are left out. Rule as the data show it: active = T/C of 150% or more; inactive = T/C below 125%.

Tested on: L1210 leukemia ip in BDF1 mice, survival T/C
Experiment: NCI In Vivo Anticancer Drug Screen. Data for tumor model L1210 Leukemia (intraperitoneal) in B6D2F1 (BDF1) mice
Details: endpoint: mean survival time, higher = longer survival
In short: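 Each compound was tested against a transplantable tumor grown in mice. The endpoint was survival, with treated animals benchmarked against vehicle controls as a simple ratio.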

[1] = dose: 100.0 mg/kg/injection, schedule: Q04DX003 (ip), vehicle: saline with Tween-80
[2] = dose: 200.0 mg/kg/injection, schedule: Q04DX003 (ip), vehicle: saline with Tween-80
[3] = dose: 100.0 mg/kg/injection, schedule: Q04DX003 (ip), vehicle: Klucel (hydroxypropylcellulose) (HPC)
[4] = dose: 200.0 mg/kg/injection, schedule: Q04DX003 (ip), vehicle: Klucel (hydroxypropylcellulose) (HPC)
[5] = dose: 400.0 mg/kg/injection, schedule: Q04DX003 (ip), vehicle: Klucel (hydroxypropylcellulose) (HPC)
[6] = dose: 100.0 mg/kg/injection, schedule: Q01DX001 (ip), vehicle: Klucel (hydroxypropylcellulose) (HPC)
[7] = dose: 200.0 mg/kg/injection, schedule: Q01DX001 (ip), vehicle: Klucel (hydroxypropylcellulose) (HPC)
[8] = dose: 400.0 mg/kg/injection, schedule: Q01DX001 (ip), vehicle: Klucel (hydroxypropylcellulose) (HPC)
[9] = dose: 100.0 mg/kg/injection, schedule: Q01DX009 (ip), vehicle: saline
[10] = dose: 200.0 mg/kg/injection, schedule: Q01DX009 (ip), vehicle: saline
[11] = dose: 400.0 mg/kg/injection, schedule: Q01DX009 (ip), vehicle: saline
[12] = dose: 100.0 mg/kg/injection, schedule: Q04DX003 (ip), vehicle: saline
[13] = dose: 200.0 mg/kg/injection, schedule: Q04DX003 (ip), vehicle: saline
[14] = dose: 100.0 mg/kg/injection, schedule: Q01DX001 (ip), vehicle: saline
[15] = dose: 200.0 mg/kg/injection, schedule: Q01DX001 (ip), vehicle: saline

Measured: T/C

CSC(N(C)C)=[N+](C)C
inactive: dose: 15.0 mg/kg/injection, schedule: Q01DX Z (ip), vehicle: methylcellulose (MC) 101 % of control | dose: 30.0 mg/kg/injection, schedule: Q01DX Z (ip), vehicle: methylcellulose (MC) 105 % of control | dose: 60.0 mg/kg/injection, schedule: Q01DX Z (ip), vehicle: methylcellulose (MC) 105 % of control | dose: 60.0 mg/kg/injection, schedule: Q01DX Z (oral), vehicle: methylcellulose (MC) 95 % of control | [1] 100 % of control | dose: 120.0 mg/kg/injection, schedule: Q01DX Z (ip), vehicle: methylcellulose (MC) 103 % of control | dose: 120.0 mg/kg/injection, schedule: Q01DX Z (oral), vehicle: methylcellulose (MC) 97 % of control | [2] 107 % of control

CC(=O)c1ccc(Oc2ccc([N+](=O)[O-])cc2)cc1
inactive: [3] 98 % of control | [4] 96 % of control | [5] 101 % of control

ClCc1cc(OCc2ccccc2)ccc1OCc1ccccc1
inactive: dose: 75.0 mg/kg/injection, schedule: Q04DX003 (ip), vehicle: Klucel (hydroxypropylcellulose) (HPC) 86 % of control | [6] 101 % of control | dose: 150.0 mg/kg/injection, schedule: Q04DX003 (ip), vehicle: Klucel (hydroxypropylcellulose) (HPC) 91 % of control | [7] 94 % of control | dose: 300.0 mg/kg/injection, schedule: Q04DX003 (ip), vehicle: Klucel (hydroxypropylcellulose) (HPC) 86 % of control | [8] 97 % of control

COC(CN(C)Cc1ccccc1)OC
inactive: dose: 75.0 mg/kg/injection, schedule: Q01DX001 (ip), vehicle: saline 107 % of control | dose: 150.0 mg/kg/injection, schedule: Q01DX001 (ip), vehicle: saline 104 % of control | dose: 300.0 mg/kg/injection, schedule: Q01DX001 (ip), vehicle: saline 102 % of control

COc1cc(Br)c(CCC(=O)O)cc1OC
inactive: [9] 97 % of control | [1] 96 % of control | [10] 94 % of control | [2] 114 % of control | [11] 100 % of control | dose: 400.0 mg/kg/injection, schedule: Q04DX003 (ip), vehicle: saline with Tween-80 91 % of control

COc1ccccc1C(C#N)N1CCCN(C(C#N)c2ccccc2OC)C1c1cc(Cl)cc(Cl)c1O (stereo not drawn)
inactive: [9] 103 % of control | [12] 112 % of control | [10] 88 % of control | [13] 97 % of control | [11] 90 % of control | dose: 400.0 mg/kg/injection, schedule: Q04DX003 (ip), vehicle: saline 97 % of control

NC(=O)C1(C(N)=O)CCC1
inactive: dose: 100.0 mg/kg/injection, schedule: Q01DX009 (ip), vehicle: Klucel (hydroxypropylcellulose) (HPC) 105 % of control | dose: 200.0 mg/kg/injection, schedule: Q01DX009 (ip), vehicle: Klucel (hydroxypropylcellulose) (HPC) 105 % of control | dose: 400.0 mg/kg/injection, schedule: Q01DX009 (ip), vehicle: Klucel (hydroxypropylcellulose) (HPC) 106 % of control

O=S(=O)(O)c1ccccn1
inactive: [12] 98 % of control | [13] 93 % of control

NC1=NC(CCc2ccccc2)N(c2ccc3ccccc3c2)C(N)=N1 (stereo not drawn)
inactive: dose: 4.7 mg/kg/injection, schedule: Q01DX009 (ip), vehicle: saline sonified 96 % of control | dose: 9.4 mg/kg/injection, schedule: Q01DX009 (ip), vehicle: saline sonified 103 % of control | dose: 18.8 mg/kg/injection, schedule: Q01DX001 (ip), vehicle: saline 91 % of control

O=[N+]([O-])c1ccc(/C=C/C2OCCO2)cc1
inactive: dose: 50.0 mg/kg/injection, schedule: Q01DX001 (ip), vehicle: saline 98 % of control | [14] 96 % of control | [15] 101 % of control

Cn1cc(/C=C\C(=O)O)c2nccnc21
inactive: dose: 37.5 mg/kg/injection, schedule: Q01DX009 (ip), vehicle: water 95 % of control | dose: 50.0 mg/kg/injection, schedule: Q01DX009 (ip), vehicle: water 100 % of control | dose: 75.0 mg/kg/injection, schedule: Q01DX009 (ip), vehicle: water 105 % of control | dose: 100.0 mg/kg/injection, schedule: Q01DX009 (ip), vehicle: water 89 % of control | dose: 100.0 mg/kg/injection, schedule: Q04DX003 (ip), vehicle: water 108 % of control | dose: 150.0 mg/kg/injection, schedule: Q01DX009 (ip), vehicle: water 89 % of control | dose: 200.0 mg/kg/injection, schedule: Q01DX009 (ip), vehicle: water 91 % of control | dose: 200.0 mg/kg/injection, schedule: Q04DX003 (ip), vehicle: water 106 % of control | dose: 300.0 mg/kg/injection, schedule: Q01DX009 (ip), vehicle: water 91 % of control

O=C(OCCCC(C(=O)c1ccccc1)=P(c1ccccc1)(c1ccccc1)c1ccccc1)c1ccccc1
inactive: dose: 100.0 mg/kg/injection, schedule: Q01DX001 (ip), vehicle: saline with Tween-80 104 % of control | dose: 200.0 mg/kg/injection, schedule: Q01DX001 (ip), vehicle: saline with Tween-80 93 % of control | dose: 400.0 mg/kg/injection, schedule: Q01DX001 (ip), vehicle: saline with Tween-80 93 % of control

CC[CH2][Pb]([CH2]CC)([CH2]CC)[N]1C(=O)c2ccccc2C1=O
inactive: dose: 3.12 mg/kg/injection, schedule: Q01DX009 (ip), vehicle: saline 98 % of control | dose: 3.12 mg/kg/injection, schedule: Q04DX002 (ip), vehicle: saline 92 % of control | dose: 6.25 mg/kg/injection, schedule: Q01DX009 (ip), vehicle: saline 101 % of control | dose: 6.25 mg/kg/injection, schedule: Q04DX002 (ip), vehicle: saline 111 % of control | dose: 12.5 mg/kg/injection, schedule: Q04DX002 (ip), vehicle: saline 94 % of control and 111 % of control

CCOC(=O)c1cnc(C)nc1N
inactive: [6] 97 % of control | [7] 97 % of control | [8] 92 % of control

O=C1C=CC(=O)N1c1ccc2c(c1)Cc1ccccc1-2
inactive: dose: 50.0 mg/kg/injection, schedule: Q04DX003 (ip), vehicle: saline with Tween-80 98 % of control | [1] 108 % of control and 115 % of control | [2] 87 % of control

CNC(=O)NCC1OC(OC)C(O)C(O)C1O (stereo not drawn)
inactive: [3] 100 % of control | [4] 107 % of control | [5] 100 % of control

O=C(O)c1cc(O)c2c(c1)C(C1c3cc(C(=O)O)cc(O)c3C(=O)c3c(OC4OC(CO)C(O)C(O)C4O)cccc31)c1cccc(OC3OC(CO)C(O)C(O)C3O)c1C2=O (stereo not drawn)
inactive: [14] 98 % of control and 101 % of control | [15] 97 % of control | dose: 400.0 mg/kg/injection, schedule: Q01DX001 (ip), vehicle: saline 103 % of control and 106 % of control

O=C(O)C1C2C=CC(C2)C1C(=O)O.[Cu+2] (stereo not drawn)
inactive: dose: 3.12 mg/kg/injection, schedule: Q01DX009 (ip), vehicle: Klucel (hydroxypropylcellulose) (HPC) 95 % of control | dose: 6.25 mg/kg/injection, schedule: Q01DX009 (ip), vehicle: Klucel (hydroxypropylcellulose) (HPC) 96 % of control | dose: 12.5 mg/kg/injection, schedule: Q01DX009 (ip), vehicle: Klucel (hydroxypropylcellulose) (HPC) 101 % of control | dose: 12.5 mg/kg/injection, schedule: Q04DX003 (ip), vehicle: Klucel (hydroxypropylcellulose) (HPC) 103 % of control | dose: 18.0 mg/kg/injection, schedule: Q01DX009 (ip), vehicle: Klucel (hydroxypropylcellulose) (HPC) 101 % of control | dose: 28.0 mg/kg/injection, schedule: Q01DX009 (ip), vehicle: Klucel (hydroxypropylcellulose) (HPC) 93 % of control
